For experiment [1], the target named is T1, hM3 muscarinic receptor (Homo sapiens, UniProt P20309).
T1 construct: expressed in transfected cells; host or cells: CHO cells (membranes)
As to the kind of experiment: Radioligand binding assay for muscarinic receptors (Assay Test Procedure B). The conditions noted are these: CHO cell membranes, [3H]-NMS displacement; read-out: Ki value for the M3 muscarinic receptor. The protocol: CHO cell lines stably expressing cloned human hM1, hM2, hM3 and hM4 muscarinic receptor subtypes, respectively, were grown to near confluency in HAM's F-12 media supplemented with 10% FBS and 250 μg/mL Geneticin. The cells were grown in a 5% CO2, 37° C. incubator and lifted with 2 mM EDTA in dPBS. Cells were collected by 5 minute centrifugation at 650×g, and cell pellets were either stored frozen at −80° C. or membranes were prepared immediately for use. For membrane preparation, cell pellets were resuspended in lysis buffer and homogenized with a Polytron PT-2100 tissue disrupter (Kinematica AG; 20 seconds×2 bursts). Crude membranes were centrifuged at 40,000×g for 15 minutes at 4° C. The membrane pellet was then resuspended with re-suspension buffer and homogenized again with the Polytron tissue disrupter. The protein concentration of the membrane suspension was determined by the method described in Lowry et al., 1951, […], 193, 265. All membranes were stored frozen in aliquots at −80° C. or used immediately. Aliquots of prepared hM5 receptor membranes were purchased directly from Perkin Elmer and stored at −80° C. until use.
Radioligand binding assays for cloned human muscarinic receptors were performed in 96-well microtiter plates in a total assay volume of 100 μL. […] Filter plates were rinsed three times with wash buffer (10 mM HEPES) to remove unbound radioactivity. […] The plates were then counted in a PerkinElmer Topcount liquid scintillation counter (PerkinElmer Inc., Wellesley, Mass.). Binding data were analyzed by nonlinear regression analysis with the GraphPad Prism Software package (GraphPad Software, Inc., San Diego, Calif.) using the one-site competition model. Ki values for test compounds were calculated from observed IC50 values and the KD value of the radioligand using the Cheng-Prusoff equation (Cheng Y; Prusoff W H. (1973) Biochemical Pharmacology, 22(23):3099-108). […]

Experiment [2] addresses T2, human β2 adrenergic receptor (Homo sapiens, UniProt P07550). As to the kind of experiment: Whole-cell cAMP Flashplate assay with lung epithelial cell line BEAS-2B endogenously expressing human β2 adrenergic receptor (Assay Test Procedure E). It is filed as cell-based. To be noted: BEAS-2B cells. The protocol:
For the determination of agonist potencies and efficacies (intrinsic activities) in a cell line expressing endogenous levels of the β2 adrenergic receptor, a human lung epithelial cell line (BEAS-2B) was used (ATCC CRL-9609, American Type Culture Collection, Manassas, Va.) (January B, et al., British Journal of Pharmacology, 1998, 123, 4, 701-11). Cells were grown to 75-90% confluency in complete, serum-free medium (LHC-9 MEDIUM containing Epinephrine and Retinoic Acid, cat # 181-500, Biosource International, Camarillo, Calif.). The day before the assay, medium was switched to LHC-8 (no epinephrine or retinoic acid, cat # 141-500, Biosource International, Camarillo, Calif.). cAMP assays were performed in a radioimmunoassay format using the Flashplate Adenylyl Cyclase Activation Assay System with [^125I]-cAMP (NEN SMP004, PerkinElmer Life Sciences Inc., Boston, Mass.), according to the manufacturers instructions. On the day of the assay, cells were rinsed with PBS, lifted by scraping with 5 mM EDTA in PBS, and counted. Cells were pelleted by centrifugation at 1,000 rpm and re-suspended in stimulation buffer pre-warmed to 37° C. at a final concentration of 600,000 cells/mL. Cells were used at a final concentration of 100,000 to 120,000 cells/well in this assay. […] Plates were sealed, incubated over night at 4° C. and counted the next morning in a Topcount scintillation counter (Packard BioScience Co., Meriden, Conn.). The amount of cAMP produced per mL of reaction was calculated based on the counts observed for samples and cAMP standards, as described in the manufacturer's user manual. Data were analyzed by nonlinear regression analysis with the GraphPad Prism Software package (GraphPad Software, Inc., San Diego, Calif.) using the 4-parameter model for sigmoidal dose-response.
if desired, test compound efficacity (% Eff) was calculated from the ratio of the observed Emax (TOP of the fitted curve) and the maximal response obtained for isoproterenol dose response curve and was expressed as % Eff relative to isoproterenol.

Experiment [3] deals with T2, human β2 adrenergic receptor. Put plainly: Radioligand binding assay for human β2 adrenergic receptor (Assay Test Procedure A). Also on record: expressed in transfected cells; host or cells: CHO-K1 cells. To be noted: CHO cell membranes, [3H]-dihydroalprenolol displacement. The protocol: Chinese hamster ovarian (CHO) cell lines stably expressing cloned human β1, β2 or β3 adrenergic receptors, respectively, were grown to near confluency in Hams F-12 media with 10% FBS in the presence of 500 μg/mL Geneticin. The cell monolayer was lifted with 2 mM EDTA in PBS. Cells were pelleted by centrifugation at 1,000 rpm, and cell pellets were either stored frozen at −80° C. or membranes were prepared immediately for use. For preparation of β1 and β2 receptor expressing membranes, cell pellets were re-suspended in lysis buffer (10 mM HEPES/HCl, 10 mM EDTA, pH 7.4 at 4° C.) and homogenized using a tight-fitting Dounce glass homogenizer (30 strokes) on ice. […] The protein concentration of the membrane suspension was determined by the methods described in Lowry et al., 1951, Journal of Biological Chemistry, 193, 265; and Bradford, Analytical Biochemistry, 1976, 72, 248-54. […]
Binding assays were performed in 96-well microtiter plates in a total assay volume of 100 μL with 10-15 μg of membrane protein containing the human β1, β2 or β3 adrenergic receptors in assay buffer (75 mM Tris/HCl pH 7.4 at 25° C., 12.5 mM MgCl2, 1 mM EDTA, 0.2% BSA). […] Non-specific binding was determined in the presence of 10 μM propranolol. […] Filter plates were washed three times with filtration buffer (75 mM Tris/HCl pH 7.4 at 4° C., 12.5 mM MgCl2, 1 mM EDTA) to remove unbound radioactivity. […]

The target is the same in experiment [4]. As to the kind of experiment: Whole-cell cAMP Flashplate assay in CHO cell lines heterologously expressing human β2 adrenergic receptor (Assay Test Procedure C). It is filed as cell-based. Also on record: expressed in transfected cells; host or cells: CHO-K1 cells. The conditions noted are these: CHO-K1 cells. As to the method: cAMP assays were performed in a radioimmunoassay format using the Flashplate Adenylyl Cyclase Activation Assay System with [^125I]-cAMP (NEN SMP004, PerkinElmer Life Sciences Inc., Boston, Mass.), according to the manufacturers instructions. For the determination of P receptor agonist potency (EC50), CHO-K1 cell lines stably expressing cloned human β1, β2 or β3 adrenergic receptors were grown to near confluency in HAM's F-12 media supplemented with 10% FBS and Geneticin (250 μg/mL). Cells were rinsed with PBS and detached in dPBS (Dulbecco's Phosphate Buffered Saline, without CaCl2 and MgCl2) containing 2 mM EDTA or Trypsin-EDTA solution (0.05% trypsin/0.53 mM EDTA). After counting cells in Coulter cell counter, cells were pelleted by centrifugation at 1,000 rpm and re-suspended in stimulation buffer containing IBMX (PerkinElmer Kit) pre-warmed to room temperature to a concentration of 1.6×10^6 to 2.8×10^6 cells/mL. About 60,000 to 80,000 cells per well were used in this assay. Test compounds (10 mM in DMSO) were diluted into PBS containing 0.1% BSA in Beckman Biomek-2000 and tested at 11 different concentrations ranging from 100 μM to 1 pM. Reactions were incubated for 10 min at 37° C. and stopped by adding 100 μL of cold detection buffer containing [^125I]-cAMP (NEN SMP004, PerkinElmer Life Sciences, Boston, Mass.). The amount of cAMP produced (pmol/well) was calculated based on the counts observed for the samples and cAMP standards as described in the manufacturer's user manual. Data were analyzed by nonlinear regression analysis with the GraphPad Prism Software package (GraphPad Software, Inc., San Diego, Calif.) with the sigmoidal equation. The Cheng-Prusoff equation (Cheng Y, and Prusoff W H., Biochemical Pharmacology, 1973, 22, 23, 3099-108) was used to calculate the […].

This passage reports Ki and EC50 results from patent US7569586B2, “Compounds having β2 adrenergic receptor agonist and muscarinic receptor antagonist activity” (Theravance, Inc., priority 2004, dated 2009).

pEC50, pKi: −log10 of the molar value. Bounds are passed on as bounds.

T2 sequence (P07550 whole entry): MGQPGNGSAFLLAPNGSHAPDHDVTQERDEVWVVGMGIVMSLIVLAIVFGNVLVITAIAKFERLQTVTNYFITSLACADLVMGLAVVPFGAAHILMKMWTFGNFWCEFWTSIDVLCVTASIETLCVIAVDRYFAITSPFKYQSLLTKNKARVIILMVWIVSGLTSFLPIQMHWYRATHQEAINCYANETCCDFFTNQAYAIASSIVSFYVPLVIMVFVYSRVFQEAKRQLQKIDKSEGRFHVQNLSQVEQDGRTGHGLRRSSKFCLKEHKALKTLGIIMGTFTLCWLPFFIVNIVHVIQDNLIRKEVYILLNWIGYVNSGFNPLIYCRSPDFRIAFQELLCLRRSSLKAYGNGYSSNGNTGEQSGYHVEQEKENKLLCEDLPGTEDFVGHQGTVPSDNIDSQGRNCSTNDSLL
T1 sequence (P20309 whole entry): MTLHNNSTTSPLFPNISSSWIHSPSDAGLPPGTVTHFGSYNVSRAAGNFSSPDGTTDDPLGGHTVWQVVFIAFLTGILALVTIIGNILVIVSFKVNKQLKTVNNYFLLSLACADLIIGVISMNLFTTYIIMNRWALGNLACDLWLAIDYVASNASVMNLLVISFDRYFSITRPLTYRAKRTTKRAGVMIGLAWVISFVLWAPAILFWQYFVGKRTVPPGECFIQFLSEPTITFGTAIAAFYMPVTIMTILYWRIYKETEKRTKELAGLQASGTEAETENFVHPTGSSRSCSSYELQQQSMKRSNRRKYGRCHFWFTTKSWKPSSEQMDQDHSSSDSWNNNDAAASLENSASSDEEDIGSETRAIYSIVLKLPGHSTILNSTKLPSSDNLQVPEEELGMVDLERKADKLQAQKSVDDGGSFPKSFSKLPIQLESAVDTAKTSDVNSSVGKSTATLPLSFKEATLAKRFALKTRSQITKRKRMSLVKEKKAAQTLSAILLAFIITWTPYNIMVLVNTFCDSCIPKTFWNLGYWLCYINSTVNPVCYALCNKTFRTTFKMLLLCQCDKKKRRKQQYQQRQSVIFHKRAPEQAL

In general, pKi refers to −log10 of the Ki, conventionally taken in molar units. Usually pEC50 stands for the EC50 on a negative log10 scale, so that one unit is a factor of ten. On to `O=C(Nc1ccccc1-c1ccsc1)OC1CCN(CCCCCCCCCNC[C@H](O)c2ccc(O)c3[nH]c(=O)ccc23)CC1` [Example 2, (2-Thien-3-ylphenyl)carbamic Acid 1-{9-[(R)-2-Hydroxy-2-(8-hydroxy-2-oxo-1,2-dihydroquinolin-5-yl)ethylamino]nonyl}piperidin-4-yl Ester], for which the pKi in experiment [1] and in experiment [3] was over 8.00 in each case. For the same molecule, the pEC50 in experiment [2] is over 7.70; in experiment [4] it was over 8.00.
Turning to `O=C(Nc1ccccc1-c1cccs1)OC1CCN(CCCCCCCCCNC[C@H](O)c2ccc(O)c3[nH]c(=O)ccc23)CC1` [Example 1, (2-Thien-2-ylphenyl)carbamic Acid 1-{9-[(R)-2-Hydroxy-2-(8-hydroxy-2-oxo-1,2-dihydroquinolin-5-yl)ethylamino]nonyl}piperidin-4-yl Ester], the pKi in experiment [1] and in experiment [3] was over 8.00 throughout. Further, the pEC50 is over 7.70 in experiment [2] and over 8.00 in experiment [4].
For the molecule `O=C(Nc1c(F)cc(F)cc1-c1cccnc1)OC1CCN(CCCCCCCCCNC[C@H](O)c2ccc(O)c3[nH]c(=O)ccc23)CC1` [Example 3, (2,4-Difluoro-6-pyridin-3-ylphenyl)carbamic Acid 1-{9-[(R)-2-Hydroxy-2-(8-hydroxy-2-oxo-1,2-dihydroquinolin-5-yl)ethylamino]nonyl}piperidin-4-yl Ester], the pKi in experiment [1] is over 6.82. Also, the negative-log EC50 (pEC50) in experiment [2] was over 7.70; in experiment [4], over 8.00.
